Test results taken from ChEMBL document CHEMBL5365457, “Selective HDAC3 Inhibitors with Potent In Vivo Antitumor Efficacy against Triple-Negative Breast Cancer” (J Med Chem, 2023).
Activity calls are given as the source filed them. The calls are words filed in the database; no cut-off is given here.

Experiments:
[1] = AUMC (0 to infinity) in Wistar rat at 15 mg/kg, ip measured upto 24 hrs by HPLC analysis; format: ADME, organism-based; settings: in vivo
Histone deacetylase 1 = Histone deacetylase 1 (Homo sapiens, UniProt Q13547); assay: Inhibition of full length N-terminal human recombinant HDAC1 at 1 uM incubated for 30 mins by fluorescence based microplate assay relative to control
Chain of Histone deacetylase 1 (Q13547 whole entry): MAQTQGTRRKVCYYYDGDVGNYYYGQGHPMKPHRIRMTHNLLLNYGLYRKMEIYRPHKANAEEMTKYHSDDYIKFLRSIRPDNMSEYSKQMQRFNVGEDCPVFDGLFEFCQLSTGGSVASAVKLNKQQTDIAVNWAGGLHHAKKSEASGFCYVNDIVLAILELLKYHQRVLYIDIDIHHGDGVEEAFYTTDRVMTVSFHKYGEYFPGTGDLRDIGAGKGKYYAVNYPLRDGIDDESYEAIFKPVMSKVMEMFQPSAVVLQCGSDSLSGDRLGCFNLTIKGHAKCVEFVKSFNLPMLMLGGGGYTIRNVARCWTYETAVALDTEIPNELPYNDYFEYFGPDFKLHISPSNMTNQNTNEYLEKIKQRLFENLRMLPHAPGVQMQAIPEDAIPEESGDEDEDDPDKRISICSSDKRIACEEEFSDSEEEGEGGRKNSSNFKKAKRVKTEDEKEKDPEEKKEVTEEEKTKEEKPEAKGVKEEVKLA

[2] = Tmax in Wistar rat at 5 mg/kg, ip measured upto 24 hrs by HPLC analysis; format: ADME, organism-based; settings: in vivo
4T1 [3] = assay: Induction of apoptosis in mouse 4T1 cells at 550 nM incubated for 72 hrs by annexin/PI staining based flow cytometry analysis (reference value: 1.35%); format: functional
4T1 [4] = assay: Antitumor activity against mouse 4T1 cells implanted in BALB/c mouse assessed as tumor growth inhibition at 15 mg/kg, ip measured on day 7; format: functional; settings: 4T1, 168 h, time 7 day, read-out: TGI
[5] = AUC (0 to t) in Wistar rat at 5 mg/kg, ip measured upto 24 hrs by HPLC analysis; format: ADME, organism-based; parameters: dose 5 mg/kg, time < 24 hrs, route ip; settings: in vivo
4T1 [6] = assay: Induction of apoptosis in mouse 4T1 cells at 38.6 uM incubated for 72 hrs by annexin/PI staining based flow cytometry analysis (reference value: 1.35%); format: functional
MDA-MB-231 = assay: Cytotoxicity against wild type human MDA-MB-231 cells assessed as reduction in cell viability incubated for 72 hrs by MTT assay; format: functional, cell-based; settings: MDA-MB-231, 72 h
[7] = Selectivity ratio of IC50 for cytotoxicity against human MCF-10A cells assessed as inhibition of cell growth to IC50 for cytotoxicity against human MDA-MB-231 cells assessed as inhibition of cell growth; format: toxicity, cell-based; settings: MCF-10A cells versus MDA-MB-231 cells, read-out: Ratio IC50
[8] = molecular target: T1, Histone deacetylase 3 (Mus musculus) (UniProt O88895); assay: Inhibition of HDAC3 in mouse 4T1 cells assessed as increase in acetylation of H3K9 level at 1 uM incubated for 72 hrs by western blot analysis; format: cell-based
T1 sequence (whole entry): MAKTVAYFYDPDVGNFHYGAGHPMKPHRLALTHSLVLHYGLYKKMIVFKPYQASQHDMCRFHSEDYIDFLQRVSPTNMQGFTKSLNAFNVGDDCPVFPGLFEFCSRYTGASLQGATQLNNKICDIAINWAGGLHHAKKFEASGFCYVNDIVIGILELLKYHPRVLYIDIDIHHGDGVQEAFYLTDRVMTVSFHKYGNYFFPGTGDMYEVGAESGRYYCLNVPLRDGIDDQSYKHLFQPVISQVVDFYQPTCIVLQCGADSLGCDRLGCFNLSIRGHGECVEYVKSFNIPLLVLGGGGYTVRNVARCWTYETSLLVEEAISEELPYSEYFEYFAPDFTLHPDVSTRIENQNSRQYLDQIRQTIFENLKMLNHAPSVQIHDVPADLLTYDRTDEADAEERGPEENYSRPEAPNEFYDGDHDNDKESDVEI

[9] = AUMC (0 to infinity) in Wistar rat at 5 mg/kg, ip measured upto 24 hrs by HPLC analysis; format: ADME, organism-based; settings: in vivo
[10] = Toxicity in BALB/c mouse implanted with mouse 4T1 cells assessed as liver fibrosis at 5 to 15 mg/kg, ip measured after 21 days; format: organism-based; settings: in vivo, 504 h, dose 5-15 mg/kg, time 21 day

AUMC [1]: 114.5 ug/ml.hr^2
inhibition (Histone deacetylase 1): < 17%
Tmax [2]: 2 h
AUC(0-t) at 24 h [5]: 4050 ng·h/mL
inhibition [8]: Active
AUMC [9]: 29.08 ug/ml.hr^2
Compound: CCCNNC(=O)c1cnc(NCc2ccc(OC)cc2)cn1
Activity (4T1 [3]): 63.4%
inhibition in vivo at 15 mg/kg (4T1 [4]): 84.9%
Activity (4T1 [6]): 82.7%
IC50 (MDA-MB-231): 0.743 µM
selectivity ratio [7]: 385
Activity [10]: Non-Toxic
